Key:
[1] = molar heat capacity at constant pressure; settings: 101.33 kPa
[2] = Molar enthalpy of transition or fusion; settings: Crystal
[3] = Crystal

CCCCCCCCCCCCC(=O)OCC [ethyl tridecanoate]
[1]
Settings | molar heat capacity at constant pressure [J/K/mol]
203.72 K, Crystal | 303.18
204.3 K, Crystal | 304.48
206.07 K, Crystal | 306.99
209.03 K, Crystal | 310.71
211.98 K, Crystal | 314.26
214.92 K, Crystal | 318.07
217.87 K, Crystal | 321.89
220.82 K, Crystal | 325.88
226.72 K, Crystal | 334
229.65 K, Crystal | 338.41
232.57 K, Crystal | 342.7
235.47 K, Crystal | 347.41
238.34 K, Crystal | 352.35
241.19 K, Crystal | 357.3
244.03 K, Crystal | 362.39
246.84 K, Crystal | 368.11
249.63 K, Crystal | 374.08
252.4 K, Crystal | 380.86
255.15 K, Crystal | 387.34
257.88 K, Crystal | 398.08
260.57 K, Crystal | 413.23
277.28 K, Liquid | 486.51
279.73 K, Liquid | 487.34
282.18 K, Liquid | 488.17
288.64 K, Liquid | 490.72
291.29 K, Liquid | 492.03
293.93 K, Liquid | 493
296.56 K, Liquid | 494.67
299.2 K, Liquid | 496
301.82 K, Liquid | 497.42
304.44 K, Liquid | 498.94
307.06 K, Liquid | 500.72
309.67 K, Liquid | 502.48
312.27 K, Liquid | 503.98
314.87 K, Liquid | 505.99
317.47 K, Liquid | 507.58
320.06 K, Liquid | 509.22

Settings | Molar enthalpy of transition or fusion [kcal/mol] | Triple point temperature [K]
[2] | 9.728 | –
[3] | – | 272.4

— the NIST ThermoML archive (doi:10.1021/je050065n)
